Data: ChEMBL document CHEMBL4507315 (2021)

What was measured:
[1] = test system: Tyrosine-protein kinase ABL1 (Homo sapiens), P00519 [E255K]; details: Compound concentration 100.0 nM
[2] = test system: Tyrosine-protein kinase ABL1 (Homo sapiens), P00519 [T315I]; details: Compound concentration 100.0 nM
[3] = molecular target: RAC-alpha serine/threonine-protein kinase (Homo sapiens) (UniProt P31749); details: Compound concentration 100.0 nM
[4] = molecular target: 5'-AMP-activated protein kinase catalytic subunit alpha-2 (Homo sapiens) (UniProt P54646); details: Compound concentration 100.0 nM
[5] = molecular target: Ankyrin repeat and protein kinase domain-containing protein 1 (Homo sapiens) (UniProt Q8NFD2); details: Compound concentration 100.0 nM
Ankyrin repeat and protein kinase domain-containing protein 1 (Homo sapiens), sequence (Q8NFD2 whole entry, the tested form may be a part): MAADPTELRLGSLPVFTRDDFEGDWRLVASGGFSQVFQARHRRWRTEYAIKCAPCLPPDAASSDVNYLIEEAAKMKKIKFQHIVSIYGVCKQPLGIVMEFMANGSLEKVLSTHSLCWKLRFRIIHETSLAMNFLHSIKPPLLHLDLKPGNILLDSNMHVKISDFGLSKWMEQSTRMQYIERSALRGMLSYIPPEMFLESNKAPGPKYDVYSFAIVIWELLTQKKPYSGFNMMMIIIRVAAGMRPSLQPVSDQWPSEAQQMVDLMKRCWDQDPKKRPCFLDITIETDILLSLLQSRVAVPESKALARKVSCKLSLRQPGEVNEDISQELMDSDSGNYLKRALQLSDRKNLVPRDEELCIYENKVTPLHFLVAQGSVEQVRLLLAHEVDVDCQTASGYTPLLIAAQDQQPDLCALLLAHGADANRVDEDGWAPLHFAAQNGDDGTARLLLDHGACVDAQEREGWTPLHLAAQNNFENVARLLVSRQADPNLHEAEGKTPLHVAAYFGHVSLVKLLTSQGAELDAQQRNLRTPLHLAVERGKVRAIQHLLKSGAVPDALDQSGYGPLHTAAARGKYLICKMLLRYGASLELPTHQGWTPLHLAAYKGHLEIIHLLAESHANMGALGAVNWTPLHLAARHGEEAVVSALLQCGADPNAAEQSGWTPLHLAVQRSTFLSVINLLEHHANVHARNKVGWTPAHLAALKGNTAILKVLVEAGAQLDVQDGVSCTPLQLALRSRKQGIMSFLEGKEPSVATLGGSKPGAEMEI

[6] = molecular target: Mitogen-activated protein kinase kinase kinase 5 (Homo sapiens) (UniProt Q99683); details: Compound concentration 100.0 nM
Mitogen-activated protein kinase kinase kinase 5 (Homo sapiens), sequence (Q99683 whole entry): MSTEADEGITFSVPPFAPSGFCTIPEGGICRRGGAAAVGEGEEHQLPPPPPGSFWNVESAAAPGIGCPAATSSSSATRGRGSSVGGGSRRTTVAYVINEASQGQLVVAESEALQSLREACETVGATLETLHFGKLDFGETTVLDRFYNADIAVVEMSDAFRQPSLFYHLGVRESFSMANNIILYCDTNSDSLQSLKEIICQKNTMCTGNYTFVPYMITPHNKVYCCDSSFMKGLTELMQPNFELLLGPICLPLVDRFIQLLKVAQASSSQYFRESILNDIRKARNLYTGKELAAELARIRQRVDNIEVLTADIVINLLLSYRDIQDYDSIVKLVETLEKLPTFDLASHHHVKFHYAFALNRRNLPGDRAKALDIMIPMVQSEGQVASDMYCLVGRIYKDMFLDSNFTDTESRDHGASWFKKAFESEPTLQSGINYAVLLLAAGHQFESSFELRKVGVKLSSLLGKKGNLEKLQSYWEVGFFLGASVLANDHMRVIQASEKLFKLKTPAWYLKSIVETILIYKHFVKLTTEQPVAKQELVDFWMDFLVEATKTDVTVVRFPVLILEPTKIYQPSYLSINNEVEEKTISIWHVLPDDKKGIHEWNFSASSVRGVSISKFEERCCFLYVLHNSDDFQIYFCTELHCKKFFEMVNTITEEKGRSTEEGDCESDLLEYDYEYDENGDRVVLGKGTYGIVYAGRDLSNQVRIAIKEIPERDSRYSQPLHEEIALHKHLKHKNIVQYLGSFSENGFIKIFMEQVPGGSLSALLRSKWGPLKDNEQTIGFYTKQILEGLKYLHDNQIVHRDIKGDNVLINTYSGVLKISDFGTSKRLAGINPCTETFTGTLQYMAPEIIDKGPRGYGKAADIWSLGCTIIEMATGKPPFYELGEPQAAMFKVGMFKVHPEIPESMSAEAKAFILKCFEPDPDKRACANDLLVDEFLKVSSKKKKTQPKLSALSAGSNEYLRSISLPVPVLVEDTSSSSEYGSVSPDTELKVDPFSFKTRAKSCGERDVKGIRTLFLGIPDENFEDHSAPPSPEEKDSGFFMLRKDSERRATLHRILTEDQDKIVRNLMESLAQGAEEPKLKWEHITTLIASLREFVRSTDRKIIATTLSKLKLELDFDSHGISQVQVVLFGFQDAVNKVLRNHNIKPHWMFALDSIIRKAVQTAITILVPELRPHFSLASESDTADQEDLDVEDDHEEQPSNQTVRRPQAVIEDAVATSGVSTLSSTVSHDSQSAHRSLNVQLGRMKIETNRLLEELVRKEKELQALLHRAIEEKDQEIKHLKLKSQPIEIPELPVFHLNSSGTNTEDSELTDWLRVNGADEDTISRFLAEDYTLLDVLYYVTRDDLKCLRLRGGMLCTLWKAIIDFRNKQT

[7] = molecular target: Tyrosine-protein kinase BTK (Homo sapiens) (UniProt Q06187); details: Compound concentration 100.0 nM
[8] = molecular target: Mitotic checkpoint serine/threonine-protein kinase BUB1 (Homo sapiens) (UniProt O43683); details: Compound concentration 100.0 nM
[9] = molecular target: Calcium/calmodulin-dependent protein kinase type 1D (Homo sapiens) (UniProt Q8IU85); details: Compound concentration 100.0 nM
Calcium/calmodulin-dependent protein kinase type 1D (Homo sapiens), sequence (Q8IU85 whole entry, looked up): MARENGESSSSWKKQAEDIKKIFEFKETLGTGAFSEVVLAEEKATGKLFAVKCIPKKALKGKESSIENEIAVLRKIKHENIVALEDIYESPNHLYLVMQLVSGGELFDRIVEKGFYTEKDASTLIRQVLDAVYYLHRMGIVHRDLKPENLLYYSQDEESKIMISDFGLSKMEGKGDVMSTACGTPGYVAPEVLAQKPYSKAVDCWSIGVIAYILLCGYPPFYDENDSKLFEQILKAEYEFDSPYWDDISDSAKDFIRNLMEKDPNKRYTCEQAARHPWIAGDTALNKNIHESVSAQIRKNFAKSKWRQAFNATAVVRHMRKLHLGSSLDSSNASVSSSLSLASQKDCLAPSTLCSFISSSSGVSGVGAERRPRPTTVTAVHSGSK

[10] = molecular target: Calcium/calmodulin-dependent protein kinase type II subunit alpha (Homo sapiens) (UniProt Q9UQM7); details: Compound concentration 100.0 nM
Calcium/calmodulin-dependent protein kinase type II subunit alpha (Homo sapiens), sequence (Q9UQM7 whole entry): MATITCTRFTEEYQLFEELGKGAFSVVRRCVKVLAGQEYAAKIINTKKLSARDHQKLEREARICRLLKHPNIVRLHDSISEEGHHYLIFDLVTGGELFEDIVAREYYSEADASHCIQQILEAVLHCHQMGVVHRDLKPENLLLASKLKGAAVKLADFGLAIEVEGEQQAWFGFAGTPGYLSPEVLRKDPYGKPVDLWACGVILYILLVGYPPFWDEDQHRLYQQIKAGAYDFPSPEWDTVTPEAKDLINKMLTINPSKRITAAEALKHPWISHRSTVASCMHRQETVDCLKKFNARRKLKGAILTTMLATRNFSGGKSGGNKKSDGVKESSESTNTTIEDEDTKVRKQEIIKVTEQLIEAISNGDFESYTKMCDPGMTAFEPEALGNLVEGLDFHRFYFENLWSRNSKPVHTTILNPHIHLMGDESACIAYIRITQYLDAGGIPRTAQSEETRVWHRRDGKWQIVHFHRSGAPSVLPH

[11] = molecular target: Calcium/calmodulin-dependent protein kinase type II subunit delta (Homo sapiens) (UniProt Q13557); details: Compound concentration 100.0 nM
Calcium/calmodulin-dependent protein kinase type II subunit delta (Homo sapiens), sequence (Q13557 whole entry): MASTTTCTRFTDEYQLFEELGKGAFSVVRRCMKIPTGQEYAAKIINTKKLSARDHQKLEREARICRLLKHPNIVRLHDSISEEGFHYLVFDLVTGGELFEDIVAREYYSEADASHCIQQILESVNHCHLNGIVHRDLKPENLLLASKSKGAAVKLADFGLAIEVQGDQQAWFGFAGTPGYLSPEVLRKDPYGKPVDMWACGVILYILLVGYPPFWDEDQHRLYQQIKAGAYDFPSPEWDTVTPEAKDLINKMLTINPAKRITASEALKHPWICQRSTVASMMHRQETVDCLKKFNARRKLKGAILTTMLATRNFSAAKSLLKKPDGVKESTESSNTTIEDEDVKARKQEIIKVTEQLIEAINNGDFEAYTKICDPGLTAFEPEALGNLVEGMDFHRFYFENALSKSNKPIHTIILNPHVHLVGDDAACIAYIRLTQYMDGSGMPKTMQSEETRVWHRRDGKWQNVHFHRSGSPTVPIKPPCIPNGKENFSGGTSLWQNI

[12] = molecular target: Calcium/calmodulin-dependent protein kinase type II subunit gamma (Homo sapiens) (UniProt Q13555); details: Compound concentration 100.0 nM
[13] = molecular target: Cyclin-dependent kinase 19 (Homo sapiens) (UniProt Q9BWU1); details: Compound concentration 100.0 nM
[14] = molecular target: Cyclin-dependent kinase-like 2 (Homo sapiens) (UniProt Q92772); details: Compound concentration 100.0 nM
[15] = molecular target: Casein kinase I isoform alpha-like (Homo sapiens) (UniProt Q8N752); details: Compound concentration 100.0 nM
[16] = molecular target: Casein kinase I isoform gamma-3 (Homo sapiens) (UniProt Q9Y6M4); details: Compound concentration 100.0 nM
[17] = molecular target: Ephrin type-A receptor 7 (Homo sapiens) (UniProt Q15375); details: Compound concentration 100.0 nM
[18] = molecular target: Vascular endothelial growth factor receptor 1 (Homo sapiens) (UniProt P17948); details: Compound concentration 100.0 nM
[19] = molecular target: Tyrosine-protein kinase JAK1 (Homo sapiens) (UniProt P23458); details: Compound concentration 100.0 nM
[20] = molecular target: Tyrosine-protein kinase JAK3 (Homo sapiens) (UniProt P52333); details: Compound concentration 100.0 nM
[21] = molecular target: Serine/threonine-protein kinase 10 (Homo sapiens) (UniProt O94804); details: Compound concentration 100.0 nM
Serine/threonine-protein kinase 10 (Homo sapiens), sequence (O94804 whole entry, looked up): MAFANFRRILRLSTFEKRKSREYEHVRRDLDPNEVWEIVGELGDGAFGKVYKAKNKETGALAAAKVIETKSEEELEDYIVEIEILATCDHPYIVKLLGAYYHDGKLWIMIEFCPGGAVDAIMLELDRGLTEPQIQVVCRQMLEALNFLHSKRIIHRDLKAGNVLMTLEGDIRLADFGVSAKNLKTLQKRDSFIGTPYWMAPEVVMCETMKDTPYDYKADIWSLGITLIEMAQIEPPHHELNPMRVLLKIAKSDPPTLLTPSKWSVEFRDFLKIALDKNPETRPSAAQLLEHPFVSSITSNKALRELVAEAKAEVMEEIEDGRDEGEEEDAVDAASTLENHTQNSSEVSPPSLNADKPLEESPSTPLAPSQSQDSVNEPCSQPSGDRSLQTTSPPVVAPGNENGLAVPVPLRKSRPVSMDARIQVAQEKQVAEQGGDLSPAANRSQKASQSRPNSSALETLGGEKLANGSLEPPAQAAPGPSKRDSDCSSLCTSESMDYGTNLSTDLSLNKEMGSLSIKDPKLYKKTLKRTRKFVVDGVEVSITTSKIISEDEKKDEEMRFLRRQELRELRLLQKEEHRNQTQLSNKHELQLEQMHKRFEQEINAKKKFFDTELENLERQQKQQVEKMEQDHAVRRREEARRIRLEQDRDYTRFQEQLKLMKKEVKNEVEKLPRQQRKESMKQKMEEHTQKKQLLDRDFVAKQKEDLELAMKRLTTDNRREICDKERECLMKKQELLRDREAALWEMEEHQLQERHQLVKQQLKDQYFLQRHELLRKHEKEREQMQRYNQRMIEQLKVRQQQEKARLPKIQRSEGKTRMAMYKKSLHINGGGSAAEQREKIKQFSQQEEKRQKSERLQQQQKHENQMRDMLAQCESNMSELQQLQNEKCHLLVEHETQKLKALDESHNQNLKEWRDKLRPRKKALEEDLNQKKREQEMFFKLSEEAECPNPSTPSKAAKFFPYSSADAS

[22] = molecular target: Mitogen-activated protein kinase kinase kinase kinase 4 (Homo sapiens) (UniProt O95819); details: Compound concentration 100.0 nM
[23] = molecular target: Mitogen-activated protein kinase kinase kinase 11 (Homo sapiens) (UniProt Q16584); details: Compound concentration 100.0 nM
[24] = molecular target: Serine/threonine-protein kinase PAK 6 (Homo sapiens) (UniProt Q9NQU5); details: Compound concentration 100.0 nM
[25] = molecular target: Cyclin-dependent kinase 16 (Homo sapiens) (UniProt Q00536); details: Compound concentration 100.0 nM
[26] = molecular target: Platelet-derived growth factor receptor beta (Homo sapiens) (UniProt P09619); details: Compound concentration 100.0 nM
[27] = molecular target: Serine/threonine-protein kinase pim-1 (Homo sapiens) (UniProt P11309); details: Compound concentration 100.0 nM
[28] = molecular target: cAMP-dependent protein kinase catalytic subunit alpha (Homo sapiens) (UniProt P17612); details: Compound concentration 100.0 nM
[29] = molecular target: Protein kinase C epsilon type (Homo sapiens) (UniProt Q02156); details: Compound concentration 100.0 nM
[30] = molecular target: Protein kinase C iota type (Homo sapiens) (UniProt P41743); details: Compound concentration 100.0 nM
Protein kinase C iota type (Homo sapiens), sequence (P41743 whole entry): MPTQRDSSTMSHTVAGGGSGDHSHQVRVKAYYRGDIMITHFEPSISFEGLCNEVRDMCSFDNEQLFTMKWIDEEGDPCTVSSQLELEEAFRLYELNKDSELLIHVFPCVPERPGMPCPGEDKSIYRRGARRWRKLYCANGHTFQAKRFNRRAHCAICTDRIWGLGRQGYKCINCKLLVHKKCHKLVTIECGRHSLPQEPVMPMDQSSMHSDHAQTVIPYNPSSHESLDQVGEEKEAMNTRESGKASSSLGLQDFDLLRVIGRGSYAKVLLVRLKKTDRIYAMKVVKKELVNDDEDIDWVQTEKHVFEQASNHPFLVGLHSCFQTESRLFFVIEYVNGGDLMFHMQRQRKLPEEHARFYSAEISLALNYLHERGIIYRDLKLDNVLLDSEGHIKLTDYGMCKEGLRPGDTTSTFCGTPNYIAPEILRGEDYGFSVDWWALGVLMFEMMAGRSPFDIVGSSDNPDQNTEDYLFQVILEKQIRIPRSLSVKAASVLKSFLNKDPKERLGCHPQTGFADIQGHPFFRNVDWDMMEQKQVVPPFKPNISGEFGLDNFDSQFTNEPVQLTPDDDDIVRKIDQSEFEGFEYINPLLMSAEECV

[31] = test system: Proto-oncogene tyrosine-protein kinase receptor Ret (Homo sapiens), P07949 [V804M]; details: Compound concentration 100.0 nM
[32] = molecular target: SRSF protein kinase 1 (Homo sapiens) (UniProt Q96SB4); details: Compound concentration 100.0 nM
[33] = molecular target: Serine/threonine-protein kinase 16 (Homo sapiens) (UniProt O75716); details: Compound concentration 100.0 nM
[34] = molecular target: Serine/threonine-protein kinase 36 (Homo sapiens) (UniProt Q9NRP7); details: Compound concentration 100.0 nM
[35] = molecular target: STE20/SPS1-related proline-alanine-rich protein kinase (Homo sapiens) (UniProt Q9UEW8); details: Compound concentration 100.0 nM
[36] = molecular target: Dual specificity protein kinase TTK (Homo sapiens) (UniProt P33981); details: Compound concentration 100.0 nM
[37] = molecular target: Tyrosine-protein kinase receptor TYRO3 (Homo sapiens) (UniProt Q06418); details: Compound concentration 100.0 nM
[38] = molecular target: Wee1-like protein kinase (Homo sapiens) (UniProt P30291); details: Compound concentration 100.0 nM
[39] = molecular target: 5-hydroxytryptamine receptor 2A (Homo sapiens) (UniProt P28223); details: Compound concentration 10.0 uM
[40] = molecular target: D(1A) dopamine receptor (Homo sapiens) (UniProt P21728); details: Compound concentration 10.0 uM
[41] = molecular target: D(3) dopamine receptor (Homo sapiens) (UniProt P35462); details: Compound concentration 10.0 uM
[42] = molecular target: D(1B) dopamine receptor (Homo sapiens) (UniProt P21918); details: Compound concentration 10.0 uM
Histamine H1 receptor = Histamine H1 receptor (Homo sapiens, UniProt P35367); details: Compound concentration 10.0 uM
[43] = molecular target: Histamine H3 receptor (Homo sapiens) (UniProt Q9Y5N1); details: Compound concentration 10.0 uM
[44] = molecular target: Muscarinic acetylcholine receptor M3 (Homo sapiens) (UniProt P20309); details: Compound concentration 10.0 uM

**Q.** Which residual activity [1] does the source give for O=C(NCCCC1CCCCC1)c1ccc(CNC(=O)c2cnn(-c3ccccc3)c2C(F)(F)F)cc1 [SR-321] here?
**A.** 92%

**Q.** What about the residual activity [2] of the same molecule?
**A.** 80%

**Q.** And the residual activity [3]?
**A.** 100%

**Q.** What about the residual activity [4] of the same molecule?
**A.** 100%

**Q.** And the residual activity [5]?
**A.** 100%

**Q.** And the residual activity [6]?
**A.** 91%

**Q.** And the residual activity [7]?
**A.** 100%

**Q.** What about the residual activity [8] of the same molecule?
**A.** 100%

**Q.** And the residual activity [9]?
**A.** 100%

**Q.** What about the residual activity [10] of the same molecule?
**A.** 100%

**Q.** What about the residual activity [11] of the same molecule?
**A.** 100%

**Q.** And the residual activity [12]?
**A.** 100%

**Q.** And the residual activity [13]?
**A.** 96%

**Q.** What about the residual activity [14] of the same molecule?
**A.** 100%

**Q.** And the residual activity [15]?
**A.** 94%

**Q.** And the residual activity [16]?
**A.** 100%

**Q.** What about the residual activity [17] of the same molecule?
**A.** 86%

**Q.** And the residual activity [18]?
**A.** 100%

**Q.** What about the residual activity [19] of the same molecule?
**A.** 89%

**Q.** And the residual activity [20]?
**A.** 100%

**Q.** And the residual activity [21]?
**A.** 100%

**Q.** What about the residual activity [22] of the same molecule?
**A.** 81%

**Q.** What about the residual activity [23] of the same molecule?
**A.** 100%

**Q.** What about the residual activity [24] of the same molecule?
**A.** 100%

**Q.** And the residual activity [25]?
**A.** 100%

**Q.** What about the residual activity [26] of the same molecule?
**A.** 100%

**Q.** And the residual activity [27]?
**A.** 100%

**Q.** And the residual activity [28]?
**A.** 100%

**Q.** And the residual activity [29]?
**A.** 88%

**Q.** And the residual activity [30]?
**A.** 100%

**Q.** And the residual activity [31]?
**A.** 100%

**Q.** And the residual activity [32]?
**A.** 95%

**Q.** What about the residual activity [33] of the same molecule?
**A.** 100%

**Q.** What about the residual activity [34] of the same molecule?
**A.** 100%

**Q.** What about the residual activity [35] of the same molecule?
**A.** 100%

**Q.** What about the residual activity [36] of the same molecule?
**A.** 91%

**Q.** What about the residual activity [37] of the same molecule?
**A.** 100%

**Q.** What about the residual activity [38] of the same molecule?
**A.** 97%

**Q.** And the inhibition [39]?
**A.** 8.57%

**Q.** And the inhibition [40]?
**A.** 5.56%

**Q.** And the inhibition [41]?
**A.** 2.65%

**Q.** What about the inhibition [42] of the same molecule?
**A.** 23.2%

**Q.** And the inhibition (Histamine H1 receptor)?
**A.** 63%

**Q.** And the inhibition [43]?
**A.** 9.12%

**Q.** And the inhibition [44]?
**A.** 19.5%

**Q.** With Nc1c(C(=O)NCc2ccc(C(=O)NCCCC3CCCCC3)cc2)cnn1-c1ccccc1 [SR-318] as the molecule, how does the residual activity [1] read?
**A.** 100%

**Q.** And the residual activity [2]?
**A.** 100%

**Q.** What about the residual activity [3] of the same molecule?
**A.** 100%

**Q.** What about the residual activity [4] of the same molecule?
**A.** 100%

**Q.** What about the residual activity [5] of the same molecule?
**A.** 100%

**Q.** And the residual activity [6]?
**A.** 81%

**Q.** What about the residual activity [7] of the same molecule?
**A.** 100%

**Q.** What about the residual activity [8] of the same molecule?
**A.** 86%

**Q.** What about the residual activity [9] of the same molecule?
**A.** 93%

**Q.** What about the residual activity [10] of the same molecule?
**A.** 100%

**Q.** What about the residual activity [11] of the same molecule?
**A.** 100%

**Q.** What about the residual activity [12] of the same molecule?
**A.** 100%

**Q.** What about the residual activity [13] of the same molecule?
**A.** 99%

**Q.** And the residual activity [14]?
**A.** 93%

**Q.** What about the residual activity [15] of the same molecule?
**A.** 98%

**Q.** And the residual activity [16]?
**A.** 100%

**Q.** What about the residual activity [17] of the same molecule?
**A.** 100%

**Q.** And the residual activity [18]?
**A.** 100%

**Q.** What about the residual activity [19] of the same molecule?
**A.** 100%

**Q.** And the residual activity [20]?
**A.** 100%

**Q.** And the residual activity [21]?
**A.** 100%

**Q.** What about the residual activity [22] of the same molecule?
**A.** 87%

**Q.** What about the residual activity [23] of the same molecule?
**A.** 76%

**Q.** And the residual activity [24]?
**A.** 100%

**Q.** What about the residual activity [25] of the same molecule?
**A.** 97%

**Q.** What about the residual activity [26] of the same molecule?
**A.** 100%

**Q.** What about the residual activity [27] of the same molecule?
**A.** 93%

**Q.** And the residual activity [28]?
**A.** 100%

**Q.** What about the residual activity [29] of the same molecule?
**A.** 100%

**Q.** And the residual activity [30]?
**A.** 97%

**Q.** What about the residual activity [31] of the same molecule?
**A.** 98%

**Q.** And the residual activity [32]?
**A.** 90%

**Q.** What about the residual activity [33] of the same molecule?
**A.** 100%

**Q.** And the residual activity [34]?
**A.** 100%

**Q.** What about the residual activity [35] of the same molecule?
**A.** 96%

**Q.** And the residual activity [36]?
**A.** 100%

**Q.** What about the residual activity [37] of the same molecule?
**A.** 100%

**Q.** And the residual activity [38]?
**A.** 100%

**Q.** What about the inhibition [39] of the same molecule?
**A.** 23.7%

**Q.** What about the inhibition [40] of the same molecule?
**A.** -5.64%

**Q.** What about the inhibition [41] of the same molecule?
**A.** 21.2%

**Q.** And the inhibition [42]?
**A.** 28.4%

**Q.** What about the inhibition (Histamine H1 receptor) of the same molecule?
**A.** 14.7%

**Q.** What about the inhibition [43] of the same molecule?
**A.** -2.98%

**Q.** What about the inhibition [44] of the same molecule?
**A.** 25.2%
